Laboratory results: US20240246905A1 (University of Leicester, priority 2021, published 2024)
Values after ≈ are worked out from the molar mass of the structure shown. Where two headings read alike, the source gives them in different places.

Assays:
Galleria mellonella = assay: Systemic toxicity, Galleria mellonella survival; conditions: n = 10, injection of 500 μg/mL
Description: Galleria mellonella wax worms purchased from www.livefoods.co.uk were inoculated with 10 μL of a series of dilutions of the antibiotics synthesised in-house. The antibiotic concentrations chosen for this study were the following: 1000 μg/mL, 500 μg/mL, 250 μg/mL, 125 μg/mL and 31.25 μg/mL. Each dilution was injected into 10 individual wax worms through their last pro-leg. The injected wax worms were stored at 25° C. for 5 days. The cytotoxicity was determined as the percentage survival rate of Galleria mellonella Wax worms after 5 days inoculation.

[1] = system: Staphylococcus aureus 15981; assay: Disc diffusion (Kirby-Bauer), zone of inhibition; assay type: cell-based; conditions: 500 μg/mL, '/' = no zone
Description: (§1) E. coli DH5α, P. aeruginosa PA01 and the 53 S. aureus strains were recovered from frozen (−80° C.) glycerol (15% v/v) stocks on Lysogeny agar (LA)—Gram negative and trypticase soy agar (TSA)—plates at 37° C. for 24 hours. Single colonies were placed in either 3 mL Lysogeny broth (LB)—Gram negative or trypticase soy broth (TSB)—Gram positive and incubated at 37° C., 250 rpm for 18 hours.
(§2) The antibiotic activity was determined using a Kirby-Bauer method according to Clinical Standard Laboratory Institute (CSLI) Guidelines (2017). Briefly, 180 μL of a 1 in 200 dilution (in LB or TSB) of overnight cultures of selected Gram negative and Gram positive bacteria were applied to an agar plate containing the solid growth medium, Mueller-Hinton agar (MHA). Sterile discs, inoculated with 50 μL of antibiotic, were first added to the agar plate before the plates were incubated for 24 hours at 37° C. Following incubation, the zone of inhibition (if it existed) was recorded.

MSSA 476 [2] = assay: MIC, broth micro-dilution; assay type: cell-based, Staphylococcus aureus
Description: as §1
(§3) Antibiotic MIC's were determined by a broth micro-dilution method according to Clinical Standard Laboratory Institute (CSLI) Guidelines (2017). Briefly, 96-well microplates, each containing 195 μL of the 1:2 dilution antibiotic in TSB, were inoculated with 5 μL of overnight cultured bacteria, diluted to give a starting bacterial concentration of 5×10^5 CFU/mL. The optical density of each well inoculated was recorded every 12 minutes over an 18 hour period at 37° C. The data from this was plotted in OriginPro8 (OriginLab) and sigmoidal curves fitted using the dose response function. Fitted values for each curve were used to calculate the MIC.

MRSA 252 [3] = assay: MIC, broth micro-dilution; assay type: cell-based, Staphylococcus aureus
Description: as §1, §3

MSSA 476 [4] = assay: Disc diffusion (Kirby-Bauer), zone of inhibition; assay type: cell-based, Staphylococcus aureus; conditions: 500 μg/mL, '/' = no zone; for zone of inhibition at 500 µg/mL: Staphylococcus aureus
Description: as §1, §2

MRSA 252 [5] = assay: Disc diffusion (Kirby-Bauer), zone of inhibition; assay type: cell-based, Staphylococcus aureus; conditions: 500 μg/mL, '/' = no zone; for zone of inhibition at 500 µg/mL: Staphylococcus aureus
Description: as §1, §2

Escherichia coli DH5α = assay: Disc diffusion (Kirby-Bauer), zone of inhibition; assay type: cell-based
Description: as §1, §2

[6] = system: C. neoformans H99; ATCC 208821; assay: Anti-fungal MIC (CO-ADD); assay type: cell-based; conditions: Cryptococcus neoformans, ATCC208821, read-out: MIC
Description: (§4) Fungal strains were cultured for 3 days on Yeast Extract-Peptone Dextrose (YPD) agar at 30° C. A yeast suspension of 1×10^6 to 5×10^6 CFU/mL (as determined by OD530) was prepared from five colonies. […] All plates were covered and incubated at 35° C. for 36 hours without shaking. […] The absorbance was measured using a Biotek Multiflo Synergy HTX plate reader. In both cases, the percentage of growth inhibition was calculated for each well, using the negative control (media only) and positive control (fungi without inhibitors) on the same plate. […] Due to a higher variance in growth and inhibition, a lower threshold was applied to the data for C. neoformans. In addition, the maximal percentage of growth inhibition is reported as DMax, indicating any compounds with marginal activity.

[7] = system: C. deuterogattii ATCC 32609; assay: Anti-fungal MIC (CO-ADD); assay type: cell-based; conditions: read-out: MIC
Description: as §4

C. tropicalis ATCC 750 = assay: Anti-fungal MIC (CO-ADD); assay type: cell-based; conditions: Candida tropicalis, ATCC750, read-out: MIC
Description: as §4

C. tropicalis ATCC 450 = assay: Anti-fungal MIC (CO-ADD); assay type: cell-based; conditions: Candida tropicalis, ATCC450, read-out: MIC
Description: as §4

C. albicans ATCC 90028 = assay: Anti-fungal MIC (CO-ADD); assay type: cell-based; conditions: Candida albicans, ATCC90028, read-out: MIC
Description: as §4

C. glabrata ATCC 90030 = assay: Anti-fungal MIC (CO-ADD); assay type: cell-based; conditions: Nakaseomyces glabratus, ATCC90030, read-out: MIC
Description: as §4

HEK293 cells = assay: Cytotoxicity assay, resazurin (CO-ADD); conditions: HEK 293
Description: The cytotoxicity studies were performed by CO-ADD (The Community for Open Antimicrobial Drug Discovery), funded by the Wellcome trust (UK) and the University of Queensland, Australia.^(28) In this study, the compounds were screened against a human embryonic kidney cell line, HEK293, at a set concentration of 32 μg/mL.
DMEM supplemented with 10% FBS was used as growth media and the cells were incubated together with the compounds for 20 hours at 37° C. in 5% CO2.
Cytotoxicity (or cell viability) was measured by fluorescence, excitation: 560/10 nm, emission: 590/10 nm (F560/590), after addition of 5 μL of 25 μg/mL Resazurin (2.3 μg/mL final concentration) and after incubation for further 3 h at 37° C. in 5% CO2. The fluorescence intensity was measured using a Tecan M1000 Pro monochromator plate reader, using automatic gain calculation CC50 (concentration at 50% cytotoxicity) were calculated by curve fitting the inhibition values vs. log(concentration) using sigmoidal dose-response function, with variable fitting values for bottom, top and slope. The curve fitting was implemented using Pipeline Pilot's dose-response component.

[8] = system: MRSA 252, MSSA 476, S. aureus 15981, P. aeruginosa PA01 and E. coli DH5α; assay: Disc diffusion primary screening, five strains (statements in words); assay type: cell-based; conditions: 500 μg/mL
Description: As such, the minimum inhibition concentration (MICs) of biologically active compounds were further assessed using the broth dilution method against the S. aureus strains; MRSA 252 and MSSA 476 (Table 1). The results of both assays enabled key structural elements and functional groups required for the compounds to retain their antibiotic activity to be identified.
as §2

[9] = system: Pseudomonas aeruginosa PA01; assay: Disc diffusion (Kirby-Bauer), zone of inhibition; assay type: cell-based; conditions: 500 μg/mL, '/' = no zone
Description: as §1, §2

red blood cells = assay: Hemolysis assay (CO-ADD); assay type: cell-based; conditions: 32 μg/mL highest concentration tested
Text: A problem often encountered by emerging drugs is hemolysis, also known as drug-induced immune hemolytic anemia.

[10] = Stability in the presence of glutathione (NMR); assay type: physicochemical; conditions: up to 24 hours, DMSO-D6
Text: It is well known that compounds bearing an isocyanide group are usually highly reactive, capable of reacting with electrophiles, nucleophiles and radicals.^(30) As a result, it was important to identify any stability issues which might be encountered by the lead compounds, both in storage and in the presence of glutathione and cysteine. […] Another common feature of the lead compounds is the vinyl fragment. It was hypothesized that the presence of glutathione and cysteine found in eukaryotic cells could potentially interact with the electrophilic alkene group in the compounds, thus shutting down their antibiotic activity. To probe this potentially detrimental in vivo process, compound 39 was subjected to glutathione for up to 24 hours whilst compound 41 was added to cysteine for the same length of time.

Manduca sexta = assay: Systemic toxicity, Manduca sexta survival and mass growth; assay type: in vivo; conditions: 1% solution, by 48 hours
Text: The use of Galleria for evaluating systemic toxicity study provided a straightforward method for screening any immediate toxicity issues associated with the lead compounds. One problem encountered with this model is the complications of obtaining quantitative results since only live/dead outcomes can be recorded. As an alternative and quantitative approach for systemic toxicity, it was decided to use a new model using Manduca sexta as the subject, replacing the much smaller and difficult to handle, Galleria mellonella. The Manduca sexta assay allows for the mass change of the larvae to be measured over hours/days, thus giving information not only on survival but also on the organisms' fitness^(26) Promisingly, the 72 hour assay performed at concentrations of 1 mg/mL on the selected lead compounds gave identical results to those obtained using the Galleria infection model, indicating no apparent toxicity issues for the compounds. […] As a […] control, the Manduca were injected with a 1% solution of NaN3. […]
[…] The mass of each hornworm was measured before and up to 72 hours after injection at set 24 hour intervals. The systemic toxicity was determined as the percentage survival and mass growth relative to the positive control at the pre-determined set intervals.

MRSA 252 [11] = assay: Resistance testing by serial passaging; assay type: cell-based, S. aureus; conditions: 18 serial passage cycles
Description: Next a serial passage study was undertaken in order to elucidate the speed at which target bacteria might either evolve resistance or select for persister cells within that population following exposure to compound 36.
For resistance development by serial passaging, 5 μL of overnight cultured MRSA 252 cells were added to individual wells in a 96-well plate containing 195 μL of TSB supplemented with a range of antibiotic concentrations and incubated at 37° C. for 18 hours. Ofloxacin served as a control. Wells where bacterial growth was visible after 18 hours were plated on TSA plates and incubated at 37° C. for a further 18 hours. Single colonies obtained from the overnight cultured bacteria were then inoculated into fresh TSB medium, incubated at 37° C. for 18 hours before being used in the next cycle of the resistance testing. This process continued for 18 cycles.

insect phenol-oxidases = assay: Inhibition of insect phenol-oxidases; assay type: biochemical
[12] = system: methicillin resistant Staphylococcus aureus strains; assay type: cell-based; conditions: clinically relevant methicillin resistant Staphylococcus aureus strains

## [C-]#[N+]C=Cc1c[nH]c2ccccc12 [Compound 25, 3-(2-Isocyanovinyl)-1H-indole]
Galleria mellonella
  % survival after 5 days: 90%
[1]; Staphylococcus aureus, 15981, Staphylococcus aureus 15981
  zone of inhibition at 500 µg/mL: 16 mm
MSSA 476 [2]; Staphylococcus aureus, MSSA
  MIC: 166 µg/mL (≈ 987 µM)
MRSA 252 [3]
  MIC: 61 µg/mL (≈ 363 µM)
MSSA 476 [4]; MSSA
  zone of inhibition at 500 µg/mL: 16 mm
MRSA 252 [5]; MRSA
  zone of inhibition at 500 µg/mL: 18 mm

## [C-]#[N+]C=Cc1c[nH]c2ccccc12 [Compound 26, 3-(2-Isocyanovinyl)-1H-indole]
Galleria mellonella
  % survival after 5 days: 100%
[1]; Staphylococcus aureus 15981
  Zone of inhibition: 22 mm
Escherichia coli DH5α; Escherichia coli
  zone of inhibition at 500 µg/mL: 20 mm
MSSA 476 [2]
  MIC: 222 µg/mL (≈ 1320 µM)
MRSA 252 [3]
  MIC: 20 µg/mL (≈ 119 µM)
MSSA 476 [4]
  Zone of inhibition: 20 mm
MRSA 252 [5]
  Zone of inhibition: 20 mm

## [C-]#[N+]/C=C/c1ccccc1/C=C/c1ccccc1 [Compound 38, 1-((E)-2-Isocyanovinyl)-2-((E)-styryl)benzene]
[6]
  MIC: 4 µg/mL
[7]
  MIC: 2 µg/mL
C. tropicalis ATCC 750
  MIC: 8 to 16 µg/mL
C. tropicalis ATCC 450
  MIC: 2 µg/mL
C. albicans ATCC 90028
  MIC: 2 to 4 µg/mL
C. glabrata ATCC 90030
  MIC: > 32 µg/mL
HEK293 cells
  Concentration toxic to HEK 293 cells: >32000 ng/mL
[8]
  antibiotic activity in disc diffusion assays (in words): retained antibiotic activity
[1]; Staphylococcus aureus 15981, read-out: Zone of inhibition
  zone of inhibition at 500 µg/mL: 28 mm
Escherichia coli DH5α; Escherichia coli DH5α, 500 μg/mL, '/' = no zone, read-out: Zone of inhibition
  zone of inhibition at 500 µg/mL: 28 mm
[9]
  zone of inhibition at 500 µg/mL: 26 mm
MSSA 476 [2]; Staphylococcus aureus, MSSA, read-out: MIC
  MIC: 3 µg/mL (≈ 13 µM)
MRSA 252 [3]; Staphylococcus aureus, read-out: MIC
  MIC: 5 µg/mL (≈ 21.6 µM)
MSSA 476 [4]; read-out: Zone of inhibition
  zone of inhibition at 500 µg/mL: 30 mm
MRSA 252 [5]; read-out: Zone of inhibition
  zone of inhibition at 500 µg/mL: 30 mm
Red blood cells
  Hemolytic activity (HC10): >32 µg/mL

## [C-]#[N+]/C=C/c1ccccc1/C=C/c1ccncc1 [Compound 39]
[10]
  structure after exposure to glutathione (NMR): no change in the structure
[8]
  antibiotic activity in disc diffusion assays (in words): retaining its activity against the Gram negative P. aeruginosa and E. coli
[1]; Staphylococcus aureus 15981
  Zone of inhibition: 26 mm
Escherichia coli DH5α; Escherichia coli DH5α, 500 μg/mL, '/' = no zone
  Zone of inhibition: 12 mm
[9]
  Zone of inhibition: 20 mm
MSSA 476 [2]
  MIC: 15 µg/mL (≈ 64.6 µM)
MRSA 252 [3]
  MIC: 12 µg/mL (≈ 51.7 µM)
MSSA 476 [4]
  Zone of inhibition: 32 mm
MRSA 252 [5]
  Zone of inhibition: 28 mm

## [N-]=[N+]=[N-].[Na+] [Negative Control (NaN3), NaN3, reference compound]
Galleria mellonella
  % survival after 5 days: 0%
Manduca sexta
  survival of Manduca sexta: had all died

## CC1COc2c(N3CCN(C)CC3)c(F)cc3c(=O)c(C(=O)O)cn1c23 (centres unmarked) [ofloxacin, reference compound]
MRSA 252 [11]
  increase in MIC after serial passage: greater than 10 fold

## Byelyankacin
Insect phenol-oxidases
  inhibition of insect phenol-oxidases (in words): inhibitor of insect phenol-oxidases
[12]
  antibiotic activity (in words): good antibiotic activity

## phenol vinyl isocyanide [(E)-4]
[12]
  antibiotic activity (in words): good antibiotic activity
